This note sets out measurements from patent publication US9732094B2, “Arylquinazolines” (Merck Patent GmbH, priority 2013, dated 2017).

One data set concerns the target DNA-PK (Homo sapiens (Human), UniProt P78527). As to the kind of experiment: DNA-PK assay (biochemical), flashplate 33P-ATP kinase assay. The method, boiled down: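 Radiometric kinase reaction in streptavidin-coated flashplates, stopped with 200 mM EDTA, then 30 min room-temperature incubation and saline washes.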
In data set [1] the target is DNA-PK phosphorylation at serine 2056 (Homo sapiens (Human), UniProt P78527). The data set is described as follows: DNA-PK phosphorylation at serine 2056 (cellular), bleomycin-treated HCT116 cells, ELISA. In kind it is cell-based. To be noted: read-out: IC50 pDNA-PK. In short, it runs like this:
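After overnight seeding, HCT116 cells received compound with 10 μM bleomycin for 6 h; phospho-DNA-PK ELISA signals were scaled to total DNA-PKcs, DMSO serving as blank.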
In general terms: ELISA stands for enzyme-linked immunosorbent assay.

A further data set concerns the target Kv11.1 (hERG) (Homo sapiens (Human), UniProt Q12809). As to the kind of experiment: Kv11.1 (hERG) ion channel activity (patch clamp assay), HEK293 cells transfected with hERG gene. A general note: hERG is a cardiac potassium channel; its block is linked to QT prolongation.
[2] abbreviates: cellular, HCT116 cells, 10 μM bleomycin, six hours.
Where [3] appears, read: Ki [Kv1.11 hERG], patch clamp, HEK293 transfected with hERG gene.
Where [4] appears, read: cellular DNA-PK phosphorylation at serine 2056, HCT116.
[5] abbreviates: read-out: Ki [Kv1.11 hERG], hERG patch clamp assay (cells without asterisk).
[6] abbreviates: read-out: Ki [Kv1.11 hERG], Table 5.
[7] abbreviates: Ki [Kv1.11 hERG], hERG patch clamp assay (cells without asterisk).
Where [8] appears, read: read-out: Ki [Kv1.11 hERG], patch clamp, HEK293 transfected with hERG gene.

Molecules are shown by their SMILES. Like-named read-outs stand apart in the source and are kept apart here. Some results are limits rather than exact numbers.

Sequence of Kv11.1 (hERG) (Q12809 whole entry): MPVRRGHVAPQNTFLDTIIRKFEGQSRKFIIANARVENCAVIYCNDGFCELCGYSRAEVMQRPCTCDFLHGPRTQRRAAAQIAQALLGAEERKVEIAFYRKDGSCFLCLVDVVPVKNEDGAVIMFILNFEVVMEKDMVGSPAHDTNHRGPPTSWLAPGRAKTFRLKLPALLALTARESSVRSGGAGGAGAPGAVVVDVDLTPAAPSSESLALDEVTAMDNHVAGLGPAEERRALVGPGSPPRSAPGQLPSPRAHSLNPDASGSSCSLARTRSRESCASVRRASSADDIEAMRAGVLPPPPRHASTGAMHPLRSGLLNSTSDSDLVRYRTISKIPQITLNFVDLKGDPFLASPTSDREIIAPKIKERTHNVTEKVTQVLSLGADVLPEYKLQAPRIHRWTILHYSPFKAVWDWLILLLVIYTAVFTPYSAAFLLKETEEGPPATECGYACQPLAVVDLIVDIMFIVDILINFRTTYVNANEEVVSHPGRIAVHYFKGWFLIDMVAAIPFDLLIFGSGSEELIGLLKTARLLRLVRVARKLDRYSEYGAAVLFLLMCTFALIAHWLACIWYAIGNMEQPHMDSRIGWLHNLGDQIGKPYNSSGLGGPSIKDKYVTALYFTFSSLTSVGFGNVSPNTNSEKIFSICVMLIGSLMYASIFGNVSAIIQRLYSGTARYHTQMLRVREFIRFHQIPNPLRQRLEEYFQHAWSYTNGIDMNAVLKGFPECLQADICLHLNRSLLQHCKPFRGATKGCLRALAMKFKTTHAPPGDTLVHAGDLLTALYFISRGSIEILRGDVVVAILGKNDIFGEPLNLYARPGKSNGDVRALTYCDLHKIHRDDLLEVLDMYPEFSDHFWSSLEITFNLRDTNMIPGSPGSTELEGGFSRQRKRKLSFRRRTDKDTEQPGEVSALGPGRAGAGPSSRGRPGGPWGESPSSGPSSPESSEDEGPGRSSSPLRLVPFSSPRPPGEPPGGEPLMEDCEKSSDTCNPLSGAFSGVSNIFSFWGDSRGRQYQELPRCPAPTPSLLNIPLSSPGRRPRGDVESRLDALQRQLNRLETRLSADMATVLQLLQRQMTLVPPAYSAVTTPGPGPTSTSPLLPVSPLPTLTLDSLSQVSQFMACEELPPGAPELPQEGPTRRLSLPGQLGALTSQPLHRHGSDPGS

A word on the IC50: it is the concentration that inhibits the measured activity by half. In general, Ki refers to a measure of affinity in units of concentration, obtained from inhibition or displacement. In the case of `OC(c1ccc(F)c(-c2ncnc3cc(N4CCOCC4)ccc23)c1)c1ccc(OC(F)F)nn1` (stereo not drawn) [Example 121, (6-Difluoro-methoxy-pyridazin-3-yl)-[4-fluoro-3-(7-morpholin-4-yl-quinazolin-4-yl)-phenyl]methanol], the IC50 was in the range of 0.003 to 0.007 µM on DNA-PK (enzymatic, 5 μM ATP) and 0.5 to 5 µM in data set [1] (setting [2]). On Kv11.1 (hERG) (setting [3]), this compound showed a Ki of 15 to 25 µM.

As to `O=c1ccc(C(O)c2ccc(F)c(-c3ncnc4cc(N5CCOCC5)ccc34)c2)n[nH]1` (stereo not drawn) [Example 367, 6-{[4-Fluoro-3-(7-morpholin-4-yl-quinazolin-4-yl)-phenyl]hydroxy-methyl}-2H-pyridazin-3-one], the values for the IC50 (against DNA-PK (biochemical DNA-PK assay); in data set [1] (setting [4])) were below 0.003 µM and 0.5 to 5 µM, respectively. For the same compound, at Kv11.1 (hERG) (setting [5]), the inhibition constant (Ki) was above 25 µM.

For the compound `OC(c1cccc(-c2ncnc3cc(N4CCOCC4)ccc23)c1)(c1nccs1)C(F)(F)F` (stereo not drawn) [Example 159, 2,2,2-Trifluoro-1-[3-(7-morpholin-4-yl-quinazolin-4-yl)-phenyl]-1-thiazol-2-ylethanol], the IC50 is 0.007 to 0.03 µM on DNA-PK (Table 5) and 10 to 30 µM in data set [1] (Table 5, HCT116 cells). Besides, at Kv11.1 (hERG) (setting [6]), the Ki is below 10 µM.

As to `[2H]C1([2H])OC([2H])([2H])C([2H])([2H])N(c2ccc3c(-c4cc([C@H](O)c5nccnc5C)ccc4F)ncnc3c2)C1([2H])[2H]` [Example 243, (S)-[4-Fluoro-3-[7-(2,2,3,3,5,5,6,6-octadeuteriomorpholin-4-yl)quinazolin-4-yl]phenyl]-(3-methylpyrazin-2-yl)methanol], the IC50 at DNA-PK (biochemical DNA-PK assay) lay in the range of 0.007 to 0.03 µM; in data set [1] (setting [4]) it was 0.5 to 5 µM. The Ki on Kv11.1 (hERG) (setting [5]) lay in the range of 15 to 25 µM.

As to `Cc1cnc(C(O)c2cc(-c3ncnc4cc(N5CCOCC5)ccc34)c(F)cc2F)c(C)n1` (stereo not drawn) [Example 355, [2,4-Difluoro-5-(7-morpholin-4-yl-quinazolin-4-yl)-phenyl]-(3,5-dimethyl-pyrazin-2-yl)methanol], the IC50 against DNA-PK (biochemical DNA-PK assay) is 0.003 to 0.007 µM; in data set [1] (setting [4]) it was 0.5 to 5 µM. The compound also yielded a Ki on Kv11.1 (hERG) (setting [7]) of 15 to 25 µM.

Turning to `Cn1cnc2c(C(O)c3cc(-c4ncnc5cc(N6CCOCC6)ccc45)ccc3F)ncnc21` (stereo not drawn) [Example 370, [2-Fluoro-5-(7-morpholin-4-yl-quinazolin-4-yl)-phenyl]-(9-methyl-9H-purin-6-yl)-methanol], the IC50 lay within 0.007 to 0.03 µM at DNA-PK (biochemical DNA-PK assay) and 0.5 to 5 µM in data set [1] (setting [4]). For the same compound, on Kv11.1 (hERG) (setting [5]), the inhibitory constant (Ki) is above 25 µM.

For the compound `NC(=O)C(c1cc(-c2ncnc3cc(N4CCOCC4)ccc23)ccc1Cl)c1nccnc1Cl` (stereo not drawn) [Example 315, 2-[2-Chloro-5-(7-morpholin-4-yl-quinazolin-4-yl)-phenyl]-2-(3-chloro-pyrazin-2-yl)-acetamide], the IC50 was above 0.03 µM on DNA-PK (biochemical DNA-PK assay) and 10 to 30 µM in data set [1] (setting [4]). On Kv11.1 (hERG) (setting [7]), this compound registered a Ki of 10 to 15 µM.

As to `NC(=O)c1cncc(C(C(N)=O)c2ccc(F)c(-c3ncnc4cc(N5CCOCC5)ccc34)c2)n1` (stereo not drawn) [Example 292, 6-{Carbamoyl-[4-fluoro-3-(7-morpholin-4-yl-quinazolin-4-yl)-phenyl]methyl}-pyrazine-2-carboxylic acid amide], the half-inhibitory concentration (IC50) against DNA-PK (biochemical DNA-PK assay) lay in the range of 0.007 to 0.03 µM; in data set [1] (setting [4]) it was 10 to 30 µM. Further, on Kv11.1 (hERG) (setting [5]), the Ki is above 25 µM.

Turning to `Cn1cnc2ncnc(C(O)c3cc(-c4ncnc5cc(N6CCOCC6)ccc45)c(F)cc3Cl)c21` (stereo not drawn) [Example 423, [2-Chloro-4-fluoro-5-(7-morpholin-4-yl-quinazolin-4-yl)-phenyl]-(7-methyl-7H-purin-6-yl)-methanol], the results for the IC50 (against DNA-PK (biochemical DNA-PK assay); in data set [1] (setting [4])) were 0.007 to 0.03 µM and 5 to 10 µM, respectively. Moreover, the inhibition constant (Ki) at Kv11.1 (hERG) (setting [5]) is above 25 µM.

On to `COc1ncc(Cl)nc1C(O)c1ccc(F)c(-c2ncnc3cc(N4CCOCC4)ccc23)c1` (stereo not drawn) [Example 25, (6-Chloro-3-methoxy-pyrazin-2-yl)-[4-fluoro-3-(7-morpholin-4-yl-quinazolin-4-yl)phenyl]-methanol], for which the IC50 was 0.003 to 0.007 µM at DNA-PK (enzymatic, 5 μM ATP) and below 0.5 µM in data set [1] (setting [2]). At Kv11.1 (hERG) (setting [8]), the Ki is below 10 µM.

Turning to `Cn1c(C(O)c2cc(-c3ncnc4cc(N5CCOCC5)ccc34)c(F)cc2F)cccc1=O` (stereo not drawn) [Example 380, 6-{[2,4-Difluoro-5-(7-morpholin-4-yl-quinazolin-4-yl)-phenyl]hydroxy-methyl}-1-methyl-1H-pyridin-2-one], the IC50 at DNA-PK (biochemical DNA-PK assay) lay within 0.003 to 0.007 µM; in data set [1] (setting [4]), 0.5 to 5 µM. Besides, at Kv11.1 (hERG) (setting [5]), the Ki was above 25 µM.

With `Cc1nc(C(O)c2ccc(F)c(-c3ncnc4cc(N5CCOCC5)ccc34)c2)sc1CO` (stereo not drawn) [Example 200, [4-Fluoro-3-(7-morpholin-4-yl-quinazolin-4-yl)-phenyl]-(5-hydroxy-methyl-4-methyl-thiazol-2-yl)-methanol], the IC50 at DNA-PK (Table 5) fell in the range of 0.003 to 0.007 µM; in data set [1] (Table 5, HCT116 cells), 5 to 10 µM. For the same compound, the Ki on Kv11.1 (hERG) (setting [6]) is above 25 µM.

With `OC(c1cccnn1)c1cc(-c2ncnc3cc(N4CCOCC4)ccc23)c(F)cc1F` (stereo not drawn) [Example 48, [2,4-Difluoro-5-(7-morpholin-4-yl-quinazolin-4-yl)phenyl]-pyridazin-3-ylmethanol], the IC50 fell in the range of 0.003 to 0.007 µM at DNA-PK (enzymatic, 5 μM ATP) and 0.5 to 5 µM in data set [1] (setting [2]). This compound returned a Ki on Kv11.1 (hERG) (setting [3]) of 15 to 25 µM.

For the compound `Cn1ncc2c(C(O)c3cc(-c4ncnc5cc(N6CCOCC6)ccc45)c(F)cc3F)ncnc21` (stereo not drawn) [Example 403, [2,4-Difluoro-5-(7-morpholin-4-yl-quinazolin-4-yl)-phenyl]-(1-methyl-1H-pyrazolo[3,4-d}-pyrimidin-4-yl)-methanol], the figures for the 50% inhibitory concentration (IC50) (at DNA-PK (biochemical DNA-PK assay); in data set [1] (setting [4])) were 0.003 to 0.007 µM and 0.5 to 5 µM, respectively. This compound registered an inhibition constant (Ki) on Kv11.1 (hERG) (setting [7]) of 15 to 25 µM.

In the case of `NC(=O)COc1ccc(C(O)c2cc(-c3ncnc4cc(N5CCOCC5)ccc34)c(F)cc2Cl)nn1` (stereo not drawn) [Example 111, 2-(6-{[2-Chloro-4-fluoro-5-(7-morpholin-4-yl-quinazolin-4-yl)-phenyl]hydroxy-methyl}pyridazin-3-yloxy)acetamide], the IC50 on DNA-PK (enzymatic, 5 μM ATP) is 0.003 to 0.007 µM; in data set [1] (setting [2]), 5 to 10 µM. The Ki on Kv11.1 (hERG) (setting [8]) was above 25 µM.

`CN1CCN(c2nccnc2C(O)c2ccc(F)c(-c3ncnc4cc(N5CCOCC5)ccc34)c2)C1=O` (stereo not drawn) [Example 424, 1-(3-{[4-Fluoro-3-(7-morpholin-4-yl-quinazolin-4-yl)-phenyl]hydroxy-methyl}pyrazin-2-yl)-3-methyl-imidazolidin-2-one]: the figures for the IC50 (at DNA-PK (biochemical DNA-PK assay); in data set [1] (setting [4])) were above 0.03 µM and 10 to 30 µM, respectively. The inhibition constant (Ki) at Kv11.1 (hERG) (setting [5]) is above 25 µM.

As for `OC(c1ccc2nccn2n1)c1cc(-c2ncnc3cc(N4CCOCC4)ccc23)c(F)cc1Cl` (stereo not drawn) [Example 56, [2-Chloro-4-fluoro-5-(7-morpholin-4-yl-quinazolin-4-yl)phenyl]-imidazo[1,2-b]pyridazin-6-ylmethanol], the IC50 was in the range of 0.003 to 0.007 µM against DNA-PK (enzymatic, 5 μM ATP) and 0.5 to 5 µM in data set [1] (setting [2]). The compound further returned a Ki at Kv11.1 (hERG) (setting [3]) of 10 to 15 µM.

`Cc1nccnc1[C@H](O)c1ccc(F)c(-c2ncnc3cc(N4CCOCC4)ccc23)c1` [Example 83, (R)-[4-Fluoro-3-(7-morpholin-4-yl-quinazolin-4-yl)-phenyl]-(3-methyl-pyrazin-2-yl)methanol]: the IC50 against DNA-PK (enzymatic, 5 μM ATP) was below 0.003 µM; in data set [1] (setting [2]) it was below 0.5 µM. For the same compound, the inhibition constant (Ki) at Kv11.1 (hERG) (setting [8]) is above 25 µM.

With `N#Cc1ccc(C(O)c2cc(-c3ncnc4cc(N5CCOCC5)ccc34)c(F)cc2Cl)nn1` (stereo not drawn) [Example 118, 6-{[2-Chloro-4-fluoro-5-{7-morpholin-4-yl-quinazolin-4-yl)-phenyl]hydroxy-methyl}pyridazine-3-carbonitrile], the IC50 against DNA-PK (enzymatic, 5 μM ATP) was 0.003 to 0.007 µM; in data set [1] (setting [2]), 0.5 to 5 µM. The inhibition constant Ki on Kv11.1 (hERG) (setting [3]) is 15 to 25 µM.
